Assay results taken from PMC11149917, “Translational and Therapeutic Evaluation of RAS-GTP Inhibition by RMC-6236 in RAS-Driven Cancers” (Cancer Discovery, 2024).

Test system: PRISM panel of 845 cancer cell lines
Assay: PRISM assay
Format: cell-based, human
Protocol: The PRISM cell set comprised 845 cell lines representing more than 45 lineages (see Supplementary Table S1 for cell line information), which largely overlapped with the Cancer Cell Line Encyclopedia; https://portals.broadinstitute.org/ccle). Cell lines were grown in RPMI without phenol red and supplemented with 10% or 20% FBS for adherent and suspended lines, respectively. Parental cell lines were stably infected with a unique 24-nucleotide DNA barcode via lentiviral transduction and blasticidin selection. After selection, barcoded cell lines were expanded and subjected to quality control (Mycoplasma contamination test, an SNP test for confirming cell line identity, and barcode ID confirmation). Approved cell lines were then pooled (20–25 cell lines per pool) based on doubling time similarity and frozen in assay-ready vials.
RMC-6236 was added to 384-well plates at 8-point concentration with 3-fold dilutions in triplicate. These assay-ready plates were then seeded with the thawed cell line pools. Adherent cell pools were plated at 1,250 cells per well, whereas suspension and mixed adherent/suspension pools were plated at 2,000 cells per well. Treated cells were incubated for 5 days, and then lysed. Lysate plates were collapsed together prior to barcode amplification and detection.
Each cell line's unique barcode is located in the 3′UTR of the blasticidin-resistance gene and therefore is expressed as mRNA. Total mRNA was captured using magnetic particles that recognize polyA sequences. Captured mRNA was reverse-transcribed into cDNA and then the sequence containing the unique PRISM barcode was amplified using PCR. Finally, Luminex beads that recognize the specific barcode sequences in the cell set were hybridized to the PCR products and detected using a Luminex scanner which reports the signal as a median fluorescent intensity (MFI).
• Each detection well contained 10 control barcodes in increasing abundances as spike-in controls. For each plate, we first create a reference profile by calculating the median of the log2(MFI) values across negative control wells for each of these spiked-in barcodes. • For each well, a monotonic smooth p-spline was fitted to map the spike-in control levels to the reference profile. Next, we transform the log2(MFI) for each cell barcode using the fitted spline to allow well-to-well comparisons by correcting for amplification and detection artifacts. • Next, the separability between negative and positive control treatments was assessed. In particular, we calculated the error rate of the optimum simple threshold classifier between the control samples for each cell line and plate combination. The error rate is a measure of the overlap of the two control sets and was defined as error = (FP + FN)/n, where FP is false positives, FN is false negatives, and n is the total number of controls. A threshold was set between the distributions of positive and negative control log2(MFI) values (with everything below the threshold said to be positive and above said to be negative) such that this value is minimized. Additionally, we also calculated the dynamic range of each cell line. […] Additionally, any cell line that had less than 2 passing replicates was also omitted for the sake of reproducibility. Finally, we computed viability by normalizing with respect to the median negative control for each plate.
For every gene with nonsilent mutations in at least four cell lines, we compared the AUC values between cells with and without those mutations using a t test. This analysis was carried out for (i) the full data set; (ii) excluding cell lines with nonsilent KRAS mutations; and (iii) excluding cell lines that have either KRAS or NRAS nonsilent mutations.

In the case of `CCn1c(-c2cc(N3CCN(C)CC3)cnc2[C@H](C)OC)c2c3cc(ccc31)-c1csc(n1)C[C@H](NC(=O)[C@H]1C[C@@H]1C)C(=O)N1CCC[C@H](N1)C(=O)OCC(C)(C)C2` [RMC-6236], the “RMC-6236: RevMed PRISM: AUC” value (22RV1_PROSTATE) is reported as 0.9065, the “RMC-6236: RevMed PRISM: AUC” value (A427_LUNG, KRAS p.G12D) is reported as 0.4282 and the “RMC-6236: RevMed PRISM: AUC” value (A704_KIDNEY) is reported as 1. For the same molecule, the “RMC-6236: RevMed PRISM: AUC” value (A1207_CENTRAL_NERVOUS_SYSTEM) was 1, the “RMC-6236: RevMed PRISM: AUC” value (BICR16_UPPER_AERODIGESTIVE_TRACT) was 0.548 and the “RMC-6236: RevMed PRISM: AUC” value (CAL54_KIDNEY) was 1. The “RMC-6236: RevMed PRISM: AUC” value (CAL72_BONE) was 0.8456, the “RMC-6236: RevMed PRISM: AUC” value (CAL120_BREAST) was 0.7982 and the “RMC-6236: RevMed PRISM: AUC” value (CHLA15_AUTONOMIC_GANGLIA) was 0.6747. For the same molecule, the “RMC-6236: RevMed PRISM: AUC” value (COLO678_LARGE_INTESTINE, KRAS p.G12D) was 0.7109, the “RMC-6236: RevMed PRISM: AUC” value (COLO679_SKIN) was 0.8171 and the “RMC-6236: RevMed PRISM: AUC” value (CORL23_LUNG, KRAS p.G12V) was 0.4445. For the same molecule, the “RMC-6236: RevMed PRISM: AUC” value (DETROIT562_UPPER_AERODIGESTIVE_TRACT) was 0.5051, the “RMC-6236: RevMed PRISM: AUC” value (DMS53_LUNG) was 0.9861 and the “RMC-6236: RevMed PRISM: AUC” value (EBC1_LUNG) was 0.478. The “RMC-6236: RevMed PRISM: AUC” value (ECGI10_OESOPHAGUS) was 0.6603, the “RMC-6236: RevMed PRISM: AUC” value (EW8_BONE) was 0.6608 and the “RMC-6236: RevMed PRISM: AUC” value (EWS502_BONE) was 0.706. For the same molecule, the “RMC-6236: RevMed PRISM: AUC” value (FADU_UPPER_AERODIGESTIVE_TRACT) was 0.6934, the “RMC-6236: RevMed PRISM: AUC” value (G292CLONEA141B1_BONE) was 0.9519 and the “RMC-6236: RevMed PRISM: AUC” value (GB2_BILIARY_TRACT) was 0.6327. The “RMC-6236: RevMed PRISM: AUC” value (H357_UPPER_AERODIGESTIVE_TRACT, HRAS p.G13S) was 0.44, the “RMC-6236: RevMed PRISM: AUC” value (HARA_LUNG) was 0.583 and the “RMC-6236: RevMed PRISM: AUC” value (HCC827_LUNG) was 0.8007. The “RMC-6236: RevMed PRISM: AUC” value (HCC1195_LUNG, NRAS p.Q61L) was 0.7308, the “RMC-6236: RevMed PRISM: AUC” value (HCC1937_BREAST) was 0.9056 and the “RMC-6236: RevMed PRISM: AUC” value (HCSC1_CERVIX, NRAS p.G13R) was 1. For the same molecule, the “RMC-6236: RevMed PRISM: AUC” value (HDQP1_BREAST) was 0.5485, the “RMC-6236: RevMed PRISM: AUC” value (HEYA8_OVARY, KRAS p.G12D) was 0.6142 and the “RMC-6236: RevMed PRISM: AUC” value (HT29_LARGE_INTESTINE) was 0.9177. For the same molecule, the “RMC-6236: RevMed PRISM: AUC” value (HT115_LARGE_INTESTINE) was 0.7857, the “RMC-6236: RevMed PRISM: AUC” value (IGR39_SKIN) was 0.916 and the “RMC-6236: RevMed PRISM: AUC” value (JHH6_LIVER) was 0.7876. The “RMC-6236: RevMed PRISM: AUC” value (JHOC5_OVARY) was 0.7067, the “RMC-6236: RevMed PRISM: AUC” value (KE39_STOMACH) was 0.7632 and the “RMC-6236: RevMed PRISM: AUC” value (KE97_STOMACH) was 0.8452. For the same molecule, the “RMC-6236: RevMed PRISM: AUC” value (KKU100_BILIARY_TRACT, KRAS p.G12D) was 0.4482, the “RMC-6236: RevMed PRISM: AUC” value (KKU213_BILIARY_TRACT, KRAS p.G13C) was 0.6654 and the “RMC-6236: RevMed PRISM: AUC” value (KLE_ENDOMETRIUM) was 0.9884. For the same molecule, the “RMC-6236: RevMed PRISM: AUC” value (KMS34_HAEMATOPOIETIC_AND_LYMPHOID_TISSUE) was 0.7785, the “RMC-6236: RevMed PRISM: AUC” value (KOSC2CL343_UPPER_AERODIGESTIVE_TRACT) was 0.6166 and the “RMC-6236: RevMed PRISM: AUC” value (KP2_PANCREAS, KRAS p.G12R) was 0.4026. For the same molecule, the “Median AUC (PRISM)” value (KRAS^MUT cell lines) was 0.57, the “RMC-6236: RevMed PRISM: AUC” value (KU1919_URINARY_TRACT, NRAS p.Q61R) was 0.3992 and the “RMC-6236: RevMed PRISM: AUC” value (KYSE30_OESOPHAGUS, HRAS p.Q61L) was 0.6346. For the same molecule, the “RMC-6236: RevMed PRISM: AUC” value (KYSE150_OESOPHAGUS) was 0.7237, the “RMC-6236: RevMed PRISM: AUC” value (KYSE410_OESOPHAGUS, KRAS p.G12C) was 0.5271 and the “RMC-6236: RevMed PRISM: AUC” value (KYSE450_OESOPHAGUS) was 0.5198. The “RMC-6236: RevMed PRISM: AUC” value (LI7_LIVER) was 0.743, the “RMC-6236: RevMed PRISM: AUC” value (LOVO_LARGE_INTESTINE, KRAS p.G13D) was 0.6638 and the “RMC-6236: RevMed PRISM: AUC” value (LOXIMVI_SKIN) was 0.876. For the same molecule, the “RMC-6236: RevMed PRISM: AUC” value (LS411N_LARGE_INTESTINE) was 1.
